According to publication PMC4703387, “Identification of the Calmodulin-Binding Domains of Fas Death Receptor” (PLoS ONE, 2016):
Where no end group is shown, it is not given here.

Experiments:
Ca^2+/CaM-N = target: T1, Ca^2+/CaM-N (Homo sapiens, UniProt P0DP23); assay: NMR titration (2D 1H-15N HSQC) of isolated N-terminal lobe; assay type: binding; conditions: 1H-15N HSQC titration
T1 construct: ^15N-labled samples of the isolated Ca^2+/CaM-N and Ca^2+/CaM-C domains; made in house
Procedure: NMR data were collected at 35°C on a Bruker Avance II (700 MHz ^1H) spectrometer equipped with a cryogenic triple-resonance probe, processed with NMRPIPE [35] and analyzed with NMRVIEW [36] or CCPN Analysis. […] For signal assignments of the complexes, ^13C-, ^15N-, or ^13C-/^15N-labeled Ca^2+/CaM at ~400–500 μM was mixed with unlabeled Fas-Pep1 (in 100% DMSO-d6) or Fas-Pep2 at 1.5:1 peptide:Ca^2+/CaM. […] The backbone atom resonances of Ca^2+/CaM complexes with Fas-Pep1 and Fas-Pep2 were assigned using HNCA, HN(CO)CA, HNCACB, HNCO, HN(CO)CACB and ^15N-edited NOESY-HSQC and TOCSY-HSQC experiments. These experiments have been also collected on ^15N-, or ^13C-/^15N-labeled Fas-Pep2 in complex with unlabeled Ca^2+/CaM to confirm the α-helical character of Fas-Pep2 when bound to Ca^2+/CaM. […] Combined ^1H-^15N chemical shift changes were calculated as ΔδHN = [(ΔδH)^2+(ΔδN/5)^2]^1/2, where ΔδH and ΔδN are the ^1H and ^15N chemical shift changes, respectively. Kd values were calculated by non-linear least-square fitting algorithm in Origin software (OriginLab, Northampton, MA) using the equation: ΔδHN=ΔδHN^max((Kd+L0+P0)−((Kd+L0+P0)^2−4*P0*L0)^0.5)/(2*P0) where ΔδHN^max is the chemical shift change between complex and free protein, L0 total concentration of ligand, and P0 total concentration of protein. […]

Ca^2+/CaM = target: T2, Ca^2+/CaM (Homo sapiens, UniProt P0DP23); assay: NMR titration (2D 1H-15N HSQC) of 15N-labeled Ca^2+/CaM with FasDD peptides; assay type: binding; conditions: 1H-15N HSQC, 15N-Ca^2+/CaM 100–150 μM, 35°C, pH 7.0
T2 construct: made in house
Procedure: NMR data were collected at 35°C on a Bruker Avance II (700 MHz ^1H) spectrometer equipped with a cryogenic triple-resonance probe, processed with NMRPIPE [35] and analyzed with NMRVIEW [36] or CCPN Analysis. […] For signal assignments of the complexes, ^13C-, ^15N-, or ^13C-/^15N-labeled Ca^2+/CaM at ~400–500 μM was mixed with unlabeled Fas-Pep1 (in 100% DMSO-d6) or Fas-Pep2 at 1.5:1 peptide:Ca^2+/CaM. […] The backbone atom resonances of Ca^2+/CaM complexes with Fas-Pep1 and Fas-Pep2 were assigned using HNCA, HN(CO)CA, HNCACB, HNCO, HN(CO)CACB and ^15N-edited NOESY-HSQC and TOCSY-HSQC experiments. These experiments have been also collected on ^15N-, or ^13C-/^15N-labeled Fas-Pep2 in complex with unlabeled Ca^2+/CaM to confirm the α-helical character of Fas-Pep2 when bound to Ca^2+/CaM. The chemical shifts of Ca^2+/CaM-bound Fas-Pep2 were used to predict its order parameters and secondary structure content in TALOS+.[38] Combined ^1H-^15N chemical shift changes were calculated as ΔδHN = [(ΔδH)^2+(ΔδN/5)^2]^1/2, where ΔδH and ΔδN are the ^1H and ^15N chemical shift changes, respectively. Kd values were calculated by non-linear least-square fitting algorithm in Origin software (OriginLab, Northampton, MA) using the equation: ΔδHN=ΔδHN^max((Kd+L0+P0)−((Kd+L0+P0)^2−4*P0*L0)^0.5)/(2*P0) where ΔδHN^max is the chemical shift change between complex and free protein, L0 total concentration of ligand, and P0 total concentration of protein.
To gain insights into the molecular elements of Ca^2+/CaM–FasDD interaction and to identify the interaction interface, we have utilized NMR chemical shift perturbation (CSP) as detected in ^1H-^15N heteronuclear single quantum coherence (HSQC) spectra. These experiments not only allow for identification of residues involved in binding but can also provide information on the induced conformational changes within proteins. 2D ^1H-^15N HSQC data obtained for a uniformly ^15N-labeled Ca^2+/CaM upon titration with unlabeled Fas-Pep1 are shown in Fig 5. Addition of substoichiometric amounts of Fas-Pep1 (0.5:1 peptide:Ca^2+/CaM) led to a decrease in intensity for a significant number of ^1H-^15N resonances accompanied by appearance of several new signals, consistent with a slow exchange on the NMR scale between the free and bound forms of Ca^2+/CaM. A steady decrease in intensity for the original ^1H-^15N signals and increase in intensity of the new signals was clearly observed with further addition of Fas-Pep1. Spectral changes ceased upon completion of peptide titration at 1.5:1 Fas-Pep1:Ca^2+/CaM ratio when only the new set of signals was present (Fig 5). […]
Only residues 214–227 have been detected in the x-ray structure of Ca^2+/CaM bound to FasDD(214–238); no electron density has been detected for residues 228–238.[40] […]

## VQDTAEQKVQLLRNWHQLHGKKEAYDTLIKDLKKANLC [Fas-Pep2]
Ca^2+/CaM-N
  CSPs on Ca^2+/CaM-N: significant CSPs for numerous residues
Ca^2+/CaM
  NMR exchange regime with Ca^2+/CaM: slow exchange
